According to patent US20090238808A1, “Process for the identification of novel enzyme interacting compounds” (priority 2005, published 2009):

Columns and labels:
Assay in all cases: In-lysate competition binding with kinobeads, Jurkat lysate, iTRAQ MS, relative intensity of identified proteins (Table 22)
Details in all cases: DMSO control = 1.0
[1] = biological target: T1, proteins captured on kinobeads from Jurkat cell lysate (Homo sapiens, UniProt Q14289)
T1 construct: endogenous in cells; host or cells: Jurkat clone E6-1 lysate
Protocol: (§1) This example illustrates competition binding in cell lysates (see particularly the third aspect of the invention). A test compound, Bisindolylmaleimide VIII (Bis VIII, a well known kinase inhibitor; Davies et al., 2000. Specificity and mechanism of action of some commonly used protein kinase inhibitors. Biochemical Journal 351 (Pt 1): 95-105) was added to a cell lysate thereby allowing the test compound to bind to the target proteins in the lysate. Then the lysate was contacted with the kinobeads affinity matrix to capture remaining free target proteins. The proteins bound to the kinobeads matrix were then eluted with detergent-containing buffer, separated on a SDS-polyacryamide gel and analyzed by immunodetection (Western blots) or mass spectrometry detection.
(§2) For the quantitative detection of proteins by mass spectrometry proteins were eluted from the affinity matrix and subsequently separated by SDS-Polyacrylamide gel elecrophoresis. Suitable gel areas were cut out and subjected to in-gel proteolytic digestion with trypsin.
(§3) Four tryptic digest samples (corresponding to three different Bis VIII concentrations in the lysate and one DMSO control) were labeled with ITRAQ reagents and the combined samples were analyzed in a single LC-MS/MS mass spectrometry analysis followed by peak quantification in the MS/MS spectrum (Ross et al., 2004. Multiplexed protein quantitation in Saccharomyces cerevisiae using amine-reactive isobaric tagging reagents. Mol. Cell. Proteomics 3(12): 1154-1169). […] Binding curves for individual kinases are shown (FIG. 5). The relative intensity 50 (RI50) values representing the affinity of kinase-compound pairs are similar to IC50 values reported by kinase enzyme assays (Davies et al., 2000. Specificity and mechanism of action of some commonly used protein kinase inhibitors. Biochemical Journal 351 (Pt 1): 95-105).
(§4) Aliqots of Jurkat lysate (10 mg protein) were incubated with different Bis VIII concentrations for one hour at 4° C. (0.025 μM, 0.074 μM, 0.22 μM, 0.67 μM, 2.0 μM and 6.0 μM final concentration of Bis VIII). To this end Bis VIII solutions were prepared in 100% DMSO as solvent that corresponded to 200 fold desired final Bis VIII concentration (Bis VIII from Alexis Biochemicals cat. number ALX 270-056). Five μl of these solutions were added to 1 ml of lysate resulting in the indicated final concentrations. For a control experiment 5 μl of DMSO without Bis VIII were used.
(§5) To each preincubated lysate sample 40 μl of kinobeads (see example 1) were added and incubated for one hour at 4° C. During the incubation the tubes were rotated on an end-over-end shaker (Roto Shake Genie, Scientific Industries Inc.). Beads were collected by centrifugation, transfered to Mobicol-columns (MoBiTech 10055) and washed with 10 ml 1×DP buffer containing 0.4% NP40 detergent, followed by a wash with 5 ml 1×DP buffer with 0.2% NP40. To elute the bound proteins, 100 μl 2×SDS sample buffer was added, the column was heated for 30 minutes at 50° C. and the eluate was transferred to a microfuge tube by centrifugation. Proteins were then separated by SDS-Polyacrylamide electrophoresis (SDS-PAGE). The composition and preparation of buffers is described in example 2.
(§6) The peptide extracts of samples treated with different concentrations of the test compound (0.074 μM, 0.22 μM and 0.67 μM Bis VIII) and the solvent control (0.5% DMSO) were treated with different isomers of the isobaric tagging reagent (iTRAQ Reagents Multiplex Kit, part number 4352135, Applied Biosystems, Foster City, Calif., USA). The iTRAQ reagents are a set of multiplexed, amine-specific, stable isotope reagents that can label all peptides in up to four different biological samples enabling simultaneous identification and quantitation of peptides. The iTRAQ reagents were used according to instructions provided by the manufacturer. […]

[2] = biological target: T2, proteins captured on kinobeads from Jurkat cell lysate (Homo sapiens, UniProt P48729)
T2 construct: endogenous in cells; host or cells: Jurkat clone E6-1 lysate
Protocol: as §1, §2, §3, §4, §5, §6

[3] = biological target: T3, proteins captured on kinobeads from Jurkat cell lysate (Homo sapiens, UniProt Q96GD4)
T3 construct: endogenous in cells; host or cells: Jurkat clone E6-1 lysate
Protocol: as §1, §2, §3, §4, §5, §6

[4] = biological target: T4, proteins captured on kinobeads from Jurkat cell lysate (Homo sapiens, UniProt P30291)
T4 construct: endogenous in cells; host or cells: Jurkat clone E6-1 lysate
Protocol: as §1, §2, §3, §4, §5, §6

[5] = biological target: T5, proteins captured on kinobeads from Jurkat cell lysate (Homo sapiens, UniProt P45984)
T5 construct: endogenous in cells; host or cells: Jurkat clone E6-1 lysate
Protocol: as §1, §2, §3, §4, §5, §6

[6] = biological target: T6, proteins captured on kinobeads from Jurkat cell lysate (Homo sapiens, UniProt P16083)
T6 construct: endogenous in cells; host or cells: Jurkat clone E6-1 lysate
Protocol: as §1, §2, §3, §4, §5, §6

[7] = biological target: T7, proteins captured on kinobeads from Jurkat cell lysate (Homo sapiens, UniProt P06239)
T7 construct: endogenous in cells; host or cells: Jurkat clone E6-1 lysate
Protocol: as §1, §2, §3, §4, §5, §6

[8] = biological target: T8, proteins captured on kinobeads from Jurkat cell lysate (Homo sapiens, UniProt P54619)
T8 construct: endogenous in cells; host or cells: Jurkat clone E6-1 lysate
Protocol: as §1, §2, §3, §4, §5, §6

[9] = biological target: T9, proteins captured on kinobeads from Jurkat cell lysate (Homo sapiens, UniProt Q13131)
T9 construct: endogenous in cells; host or cells: Jurkat clone E6-1 lysate
Protocol: as §1, §2, §3, §4, §5, §6

[10] = tested on: proteins captured on kinobeads from Jurkat cell lysate; parameters: species or system human
Protocol: as §1, §2, §3, §4, §5, §6

[11] = biological target: T10, proteins captured on kinobeads from Jurkat cell lysate (Homo sapiens, UniProt Q16539)
T10 construct: endogenous in cells; host or cells: Jurkat clone E6-1 lysate
Protocol: as §1, §2, §3, §4, §5, §6

[12] = biological target: T11, proteins captured on kinobeads from Jurkat cell lysate (Homo sapiens, UniProt P15559)
T11 construct: endogenous in cells; host or cells: Jurkat clone E6-1 lysate
Protocol: as §1, §2, §3, §4, §5, §6

[13] = biological target: T12, proteins captured on kinobeads from Jurkat cell lysate (Homo sapiens, UniProt P24941)
T12 construct: endogenous in cells; host or cells: Jurkat clone E6-1 lysate
Protocol: as §1, §2, §3, §4, §5, §6

[14] = biological target: T13, proteins captured on kinobeads from Jurkat cell lysate (Homo sapiens, UniProt P28482)
T13 construct: endogenous in cells; host or cells: Jurkat clone E6-1 lysate
Protocol: as §1, §2, §3, §4, §5, §6

[15] = biological target: T14, proteins captured on kinobeads from Jurkat cell lysate (Homo sapiens, UniProt P51451)
T14 construct: endogenous in cells; host or cells: Jurkat clone E6-1 lysate
Protocol: as §1, §2, §3, §4, §5, §6

Relative Intensity, PYK2 (PTK2B) ([1]; 0.074 uM in lysate): 0.82 | Relative Intensity, PYK2 (PTK2B) ([1]; 0.67 uM in lysate): 0.74 | Relative Intensity, CK1a (CSNK1A1) ([2]; 0.074 uM in lysate): 0.97 | Relative Intensity, CK1a (CSNK1A1) ([2]; 0.67 uM in lysate): 1.02 | Relative Intensity, AurB (AURKB) ([3]; 0.074 uM in lysate): 0.95 | Relative Intensity, AurB (AURKB) ([3]; 0.67 uM in lysate): 0.97 | Relative Intensity, Wee1 ([4]; 0.074 uM in lysate): 1.21 | Relative Intensity, Wee1 ([4]; 0.67 uM in lysate): 1.14 | Relative Intensity, JNK2 (MAPK9) ([5]; 0.074 uM in lysate): 0.97 | Relative Intensity, JNK2 (MAPK9) ([5]; 0.67 uM in lysate): 1.04 | Relative Intensity, NQO2 ([6]; 0.074 uM in lysate): 0.87 | Relative Intensity, NQO2 ([6]; 0.67 uM in lysate): 0.78 | Relative Intensity, LCK ([7]; 0.074 uM in lysate): 0.87 | Relative Intensity, LCK ([7]; 0.67 uM in lysate): 0.94 | Relative Intensity, PRKAG1 ([8]; 0.074 uM in lysate): 0.78 | Relative Intensity, PRKAG1 ([8]; 0.67 uM in lysate): 0.68 | Relative Intensity, AMPKa1 (PRKAA1) ([9]; 0.074 uM in lysate): 0.88 | Relative Intensity, AMPKa1 (PRKAA1) ([9]; 0.67 uM in lysate): 0.91 | Relative Intensity, p38a (MAPK14) ([11]; 0.074 uM in lysate): 0.82 | Relative Intensity, p38a (MAPK14) ([11]; 0.67 uM in lysate): 0.93 | Relative Intensity, NQO1 ([12]; 0.074 uM in lysate): 0.84 | Relative Intensity, NQO1 ([12]; 0.67 uM in lysate): 0.87 | Relative Intensity, CDK2 ([13]; 0.074 uM in lysate): 0.89 | Relative Intensity, CDK2 ([13]; 0.67 uM in lysate): 0.65 | Relative Intensity, Erk2 (MAPK1) ([14]; 0.074 uM in lysate): 0.89 | Relative Intensity, Erk2 (MAPK1) ([14]; 0.67 uM in lysate): 0.98 | Relative Intensity, BLK ([15]; 0.074 uM in lysate): 0.90 | Relative Intensity, BLK ([15]; 0.67 uM in lysate): 0.83
Compound: Cn1cc(C2=C(c3cn(CCCN)c4ccccc34)C(=O)NC2=O)c2ccccc21 [Bis VIII, Bisindolylmaleimide VIII]
Relative Intensity, Abl1 ([10]; 0.074 uM in lysate): 0.81 | Relative Intensity, Abl1 ([10]; 0.67 uM in lysate): 1.03
